Source: PubChem BioAssay (NCI)
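All cell lines were grown in 96-well plates and treated with compound for 48 hours. TGI is the concentration that stops growth completely.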

How the values were obtained:
Test in all cases: NCI tumour cell line growth inhibition, 48 h
P388 leukemia = test system: P388 leukemia
SN12K1 renal = test system: SN12K1 renal
DLD-1 colon = test system: DLD-1 colon
KM20L2 colon = test system: KM20L2 colon
M19-MEL melanoma = test system: M19-MEL melanoma
DMS 273 small cell lung = test system: DMS 273 small cell lung
P388/ADR leukemia = test system: P388/ADR leukemia
SNB-78 CNS = test system: SNB-78 CNS
DMS 114 small cell lung = test system: DMS 114 small cell lung
LXFL 529 NSCLC = test system: LXFL 529 NSCLC

Row | SMILES | TGI (P388 leukemia) [µM] | TGI (SN12K1 renal) [µM] | TGI (DLD-1 colon) [µM] | TGI (KM20L2 colon) [µM] | TGI (M19-MEL melanoma) [µM] | TGI (DMS 273 small cell lung) [µM] | TGI (P388/ADR leukemia) [µM] | TGI (SNB-78 CNS) [µM] | TGI (DMS 114 small cell lung) [µM] | TGI (LXFL 529 NSCLC) [µM]
1 | Cc1cc(C)c(C2=NO[C@@H]3[C@H]2C(=O)C=C2N(Cc4ccccc4)CCO[C@@]23O)c(C)c1 | > 100 | > 100 | > 100 | > 100 | > 100 | > 100 | > 100 | > 100 | – | –
2 | CC(C)C(Nc1c2ccccc2[n+](C)c2ccccc12)C(=O)O (stereo not drawn) | – | – | > 100 | > 100 | > 100 | > 100 | – | > 100 | > 100 | > 100
3 | COc1cc(CNc2nc3c(NC(C)=O)cc(C(F)(F)F)cc3nc2-c2ccccc2)cc(OC)c1OC | – | – | > 100 | > 100 | > 100 | > 100 | – | – | > 100 | > 100
4 | Nc1ncnc2c1ncn2C1C(O)C=C(CO)C1O (stereo not drawn) | – | > 625 | > 625 | > 625 | > 625 | > 625 | – | > 625 | > 625 | –
